BindingDB's records for doi:10.1021/jm00029a008 (Dupont Pharmaceuticals, 1994)
Counter-ions that a name gives are not always drawn.

Columns and labels:
[1] = Binding affinity for sigma receptor of guinea pig whole brain using [3H]-[…] radioligand
[2] = target: D(2) dopamine receptor (guinea pig); experiment: Binding affinity for dopamine D2 receptor using [3H]spiperone in guinea pig striatum

| Ki [1] | Ki [2] | Compound |
| --- | --- | --- |
| 0.004 µM |  | O=C1c2ccccc2CCC12CCN(Cc1ccc(F)cc1)CC2 [1'-(4-fluorobenzyl)spiro[1,2,3,4-tetrahydronaphthalene-2,4'-(hexahydropyridine)]-1-one; hydrochloride] |
| 0.003 µM |  | COc1ccc(CN2CCC3(CCc4ccccc4C3=O)CC2)cc1 [1'-(4-methoxybenzyl)spiro[1,2,3,4-tetrahydronaphthalene-2,4'-(hexahydropyridine)]-1-one; hydrochloride] |
| 0.015 µM |  | CC(C)(C)c1ccc(CN2CCC3(CCc4ccccc4C3=O)CC2)cc1 [1'-[4-(tert-butyl)benzyl]spiro[1,2,3,4-tetrahydronaphthalene-2,4'-(hexahydropyridine)]-1-one; hydrochloride] |
| 0.002 µM | 1.17 µM | O=C1c2ccccc2CCC12CCN(CC1CCCCC1)CC2 [1'-cyclohexylmethylspiro[1,2,3,4-tetrahydronaphthalene-2,4'-(hexahydropyridine)]-1-one; hydrochloride] |
| 0.0019 µM | 1.97 µM | O=C1c2ccccc2CCC12CCN(Cc1ccc([N+](=O)[O-])cc1)CC2 [1'-(4-nitrobenzyl)spiro[1,2,3,4-tetrahydronaphthalene-2,4'-(hexahydropyridine)]-1-one; hydrochloride] |
| 0.026 µM | 1.08 µM | O=C1c2ccccc2CCC1C1CCN(CC2CC2)CC1 (centres undefined) [2-(1-Cyclopropylmethyl-piperidin-4-yl)-3,4-dihydro-2H-naphthalen-1-one; hydrobromide] |
| 0.026 µM |  | CC(C1CC1)N1CCC(C2CCc3ccccc3C2=O)CC1 (centres undefined) [2-[1-(1-Cyclopropyl-ethyl)-piperidin-4-yl]-3,4-dihydro-2H-naphthalen-1-one; hydrobromide] |
|  | 0.344 µM | O=C1c2ccc(F)cc2CCC1C1CCN(CCc2ccccc2)CC1 (centres undefined) [6-Fluoro-2-(1-phenethyl-piperidin-4-yl)-3,4-dihydro-2H-naphthalen-1-one] |
| 0.001 µM |  | O=C1c2ccccc2CCC12CCN(Cc1ccccc1)CC2 |
| 0.007 µM |  | COc1ccc2c(c1)CCC(C1CCN(Cc3ccccc3)CC1)C2=O (centres undefined) [2-(1-Benzyl-piperidin-4-yl)-6-methoxy-3,4-dihydro-2H-naphthalen-1-one] |
| 0.004 µM | 1 µM | O=C1c2ccccc2CCC1C1CCN(Cc2ccccc2)CC1 (centres undefined) [2-(1-Benzyl-piperidin-4-yl)-3,4-dihydro-2H-naphthalen-1-one; hydrochloride] |
|  | > 10 µM | OC1CCc2ccccc2C12CCN(CCc1ccccc1)CC2 (centres undefined) [1'-phenethylspiro[1,2,3,4-tetrahydronaphthalene-1,4'-(hexahydropyridine)]-2-ol] |
| 0.005 µM |  | O=C1c2cccc(F)c2CCC1C1CCN(CCc2ccccc2)CC1 (centres undefined) [5-Fluoro-2-(1-phenethyl-piperidin-4-yl)-3,4-dihydro-2H-naphthalen-1-one; hydrochloride] |

Second part, the compound before the results:

| Compound | Ki [1] | Ki [2] |
| --- | --- | --- |
| O=C1c2ccccc2CCC1C1CCN(Cc2ccc(C(F)(F)F)cc2)CC1 (centres undefined) [2-[1-(4-Trifluoromethyl-benzyl)-piperidin-4-yl]-3,4-dihydro-2H-naphthalen-1-one; hydrochloride] | 0.019 µM |  |
| Cc1ccc(CN2CCC(C3CCc4ccccc4C3=O)CC2)cc1 (centres undefined) [2-[1-(4-Methyl-benzyl)-piperidin-4-yl]-3,4-dihydro-2H-naphthalen-1-one; hydrate] | 0.008 µM |  |
| CC(C)(C)c1ccc(CN2CCC(C3CCc4ccccc4C3=O)CC2)cc1 (centres undefined) [2-[1-(4-tert-Butyl-benzyl)-piperidin-4-yl]-3,4-dihydro-2H-naphthalen-1-one] | 0.026 µM | 0.41 µM |
| O=C1c2ccc(F)cc2CCC1C1CCN(Cc2ccccc2)CC1 (centres undefined) [2-(1-Benzyl-piperidin-4-yl)-6-fluoro-3,4-dihydro-2H-naphthalen-1-one] | 0.009 µM | 0.062 µM |
| O=C1c2ccccc2CCC1C1CCN(Cc2ccc(F)cc2)CC1 (centres undefined) [2-[1-(4-Fluoro-benzyl)-piperidin-4-yl]-3,4-dihydro-2H-naphthalen-1-one; hydrochloride] | 0.011 µM | 0.061 µM |
| O=C1c2ccccc2CCC12CCN(Cc1ccc(C(F)(F)F)cc1)CC2 [1'-(4-trifluoromethylbenzyl)spiro[1,2,3,4-tetrahydronaphthalene-2,4'-(hexahydropyridine)]-1-one; malate] | 0.024 µM |  |
| O=C1c2ccc(Cl)cc2CCC1C1CCN(CCc2ccccc2)CC1 (centres undefined) [6-Chloro-2-(1-phenethyl-piperidin-4-yl)-3,4-dihydro-2H-naphthalen-1-one; hydrochloride] | 0.009 µM |  |
| O=C1CCc2ccccc2C12CCN(CCc1ccccc1)CC2 [1'-phenethylspiro[1,2,3,4-tetrahydronaphthalene-1,4'-(hexahydropyridine)]-2-one] | 0.013 µM | > 10 µM |
| O=C1c2ccc(Cl)cc2CCC12CCN(CCc1ccccc1)CC2 [6-chloro-1'-phenethylspiro[1,2,3,4-tetrahydronaphthalene-2,4'-(hexahydropyridine)]-1-one] | 0.035 µM |  |
| O=C1c2ccccc2CCC12CCN(Cc1ccc3ccccc3c1)CC2 [1'-(2-naphthylmethyl)spiro[1,2,3,4-tetrahydronaphthalene-2,4'-(hexahydropyridine)]-1-one ;malate] | 0.011 µM | > 10 µM |
| O=C1c2ccccc2CCC1C1CCN(CCc2ccccc2)CC1 (centres undefined) [2-(1-Phenethyl-piperidin-4-yl)-3,4-dihydro-2H-naphthalen-1-one; hydrobromide] | 0.01 µM | 0.6 µM |
